{
  "source": "patent US20210145768A1",
  "about": "“MODULATING IMMUNE RESPONSE VIA TARGETING OF OLFACTORY RECEPTOR ACTIVITY” (La Jolla Institute for Allergy and Immunology, priority 2018, published 2021)",
  "key": {"Olfr2": {"system": "Olfr2", "assay": "Olfr2 mRNA and protein expression in BMDMs (real time PCR, western blot, flow cytometry)", "type": "cell-based, mouse", "conditions": "12 h", "experimental": "Olfr2 expression in BMDMs was investigated. Briefly, bone marrow cells from Apoe^−/− mice were stimulated with MCSF (20 ng/ml) for 7 d to generate BMDMs, which were left untreated or incubated with the Olfr2 agonist octanal (Oct, 10 μM), LPS, (500 ng/mL), or with both for 12 h.\n(§1) BMDMs and hMDMs were incubated in culture media for 12 h at 37° C. and 5% CO2 with Oct, (10 μM), LPS (500 ng/mL) alone or combined with Oct (LPS+Oct) and DMSO (0.1%) as a control and lysed with Qiazol (500 μL; Qiagen) Similarly, whole aortas incubated as previously described were transferred into Qiazol (500 μl; Qiagen) and digested with gentleMACS™ Dissociator (Miltenyi).\nBMDMs, hMDMs, mouse blood leukocytes and whole mount aortas were incubated in culture medium with Oct, (10 μM), LPS, (500 ng/mL) alone or combined (LPS+Oct) for 12h at 37° C. and 5% CO2. After the incubation aortas were cut into small pieces and digested for cell suspension as previously described^18. […]\nFor Olfr2 protein detection in BMDMs, cells were incubated in culture medium with Oct, (10 μM), LPS, (500 ng/mL) alone or combined (LPS+Oct) for 12h at 37° C. and 5% CO2. […] Total protein content was quantified using DC Protein Assay (Bio-Rad) and solubilized in a volume ratio of 1:1 with Laemmli Buffer (Bio-Rad). […]"}, "OR6A2": {"biological_target": "T1, OR6A2 (Homo sapiens, UniProt O95222)", "T1 construct": "OR6A2 protein surface expression in hMDMs was confirmed by flow cytometry; endogenous in cells; host or cells: human monocyte-derived macrophages from healthy donors (rhM-CSF, 7 d)", "T1 sequence (O95222 1-327)": "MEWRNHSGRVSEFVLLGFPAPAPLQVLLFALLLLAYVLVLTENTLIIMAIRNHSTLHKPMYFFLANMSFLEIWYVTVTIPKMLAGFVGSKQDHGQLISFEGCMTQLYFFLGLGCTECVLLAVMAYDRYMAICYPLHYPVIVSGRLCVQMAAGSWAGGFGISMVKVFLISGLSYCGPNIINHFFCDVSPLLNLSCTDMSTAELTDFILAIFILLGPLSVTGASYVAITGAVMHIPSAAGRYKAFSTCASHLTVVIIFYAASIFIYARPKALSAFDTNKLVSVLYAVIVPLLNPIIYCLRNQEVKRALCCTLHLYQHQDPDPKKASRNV", "assay": "Pro-inflammatory gene expression and cytokine secretion in hMDMs", "type": "cell-based", "conditions": "12 h", "experimental": "Peripheral blood mononuclear cells (PBMCs) were isolated from EDTA-venous blood of informed healthy donors (25-50 years old) from La Jolla Institute for Immunology's in-house Normal Blood Donor Program (NBDP), using a Ficoll-Paque (GE Healthcare) standard separation protocol. Human monocytes were enriched from PBMCs by the EasySep™ Human Monocyte Isolation Kit (StemCell) according to the manufacturer's instructions. Enriched monocytes were incubated with culture medium supplemented with 50 ng/ml rhM-CSF at 37° C. and 5% CO2 for 7 days. Differentiated macrophages at day 7 were used for further studies.\nas §1\nTotal RNA was quantified using a nanodrop spectrophotometer (Peqlab) and 500 ng were reverse transcribed into cDNA using Omniscript reverse transcriptase (Qiagen). Real time PCR reactions were performed according to the RT^2 SYBR green gene expression assay protocol (Qiagen). RT2 SYBR Green qPCR master mix and premade RT^2 qPCR Primer Assays for mouse Olfr2, Rtp1, Rtp2, Ccl2, Ccl4, Tnf, Nos2 and Gapdh were used. […] The results were calculated applying the 2^−ΔΔCT method^32 using Gapdh/GAPDH as housekeeping gene.\nSupernatants of stimulated cells and aortic tissue were analyzed by BD CBA Flex Sets (BD Biosciences) for mouse TNFα, CCL2, CCL4, IL-1β, or human TNF, IL6, and IL-1β according to the manufacturer's protocol. Samples were analyzed with LSR-II (BD Biosciences). Data was acquired with FACSDiva software (BD Biosciences) and analyzed with FCAP array software 3.0 (BD Biosciences)."}},
  "data": [
    {"smiles": "CCCCCCCC=O", "note": "[octanal]", "values": [
      {"measurement": "Olfr2 mRNA and protein expression in BMDMs", "setting": "Olfr2; LPS + octanal combined", "value": "potentiated"},
      {"measurement": "Olfr2 mRNA and protein expression in BMDMs", "setting": "Olfr2; octanal 10 μM", "value": "enhanced"},
      {"measurement": "LPS-induced expression of TNF, IL6 and NOS2 in hMDMs", "setting": "OR6A2; LPS 500 ng/mL + octanal 10 μM", "value": "enhanced the LPS-induced expression"},
      {"measurement": "secretion of inflammatory molecules (IL6, TNF) in hMDM supernatant", "setting": "OR6A2; LPS + octanal, cytokine bead array", "value": "enhanced"},
      {"measurement": "mRNA expression of TNF, IL6 and NOS2 in hMDMs", "setting": "OR6A2; octanal 10 μM", "value": "induced mRNA expression"}
    ]}
  ]
}
